#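 A five-concentration, 48-hour dose response in 96-well plates underlies each endpoint, interpolated linearly between surrounding concentrations. GI50 = concentration required for 50% inhibition of growth. TGI denotes the concentration required for complete inhibition of growth.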
# Legend:
# Test in all cases: NCI anticancer screen, dose series, 48 h
# BT-549 breast = system: BT-549 breast
# T-47D breast = system: T-47D breast
# OVCAR-8 ovarian = system: OVCAR-8 ovarian
# HS 578T breast = system: HS 578T breast
# COLO 205 colon = system: COLO 205 colon
# UO-31 renal = system: UO-31 renal
# NCI-H226 lung = system: NCI-H226 lung
# HT29 colon = system: HT29 colon
# SK-MEL-5 melanoma = system: SK-MEL-5 melanoma
# MDA-MB-435 = system: MDA-MB-435
# K-562 leukemia = system: K-562 leukemia
# HCT-15 colon = system: HCT-15 colon
# RXF 393 renal = system: RXF 393 renal
# MDA-MB-231 breast = system: MDA-MB-231 breast
# OVCAR-3 ovarian = system: OVCAR-3 ovarian
# HCT-116 colon = system: HCT-116 colon
# MCF7 breast = system: MCF7 breast
# DU-145 prostate = system: DU-145 prostate
# MALME-3M melanoma = system: MALME-3M melanoma
# NCI-H522 lung = system: NCI-H522 lung
# SNB-75 CNS = system: SNB-75 CNS
# SR leukemia = system: SR leukemia
# NCI-H460 lung = system: NCI-H460 lung
# RPMI-8226 leukemia = system: RPMI-8226 leukemia
# SK-OV-3 ovarian = system: SK-OV-3 ovarian
# LOX IMVI melanoma = system: LOX IMVI melanoma
# 786-0 renal = system: 786-0 renal
# OVCAR-5 ovarian = system: OVCAR-5 ovarian
# A549 NSCLC = system: A549 NSCLC
# SNB-19 CNS = system: SNB-19 CNS
# KM12 colon = system: KM12 colon
# HOP-92 NSCLC = system: HOP-92 NSCLC
# IGROV1 ovarian = system: IGROV1 ovarian
# UACC-62 melanoma = system: UACC-62 melanoma
# A498 renal = system: A498 renal
# OVCAR-4 ovarian = system: OVCAR-4 ovarian
# EKVX NSCLC = system: EKVX NSCLC
# SF-295 CNS = system: SF-295 CNS
# SK-MEL-2 melanoma = system: SK-MEL-2 melanoma
# CAKI-1 renal = system: CAKI-1 renal
# U251 CNS = system: U251 CNS
# SK-MEL-28 melanoma = system: SK-MEL-28 melanoma
# HCC-2998 colon = system: HCC-2998 colon
# UACC-257 melanoma = system: UACC-257 melanoma
# HL-60(TB) leukemia = system: HL-60(TB) leukemia
# NCI-H23 lung = system: NCI-H23 lung
# MOLT-4 leukemia = system: MOLT-4 leukemia
# SN12C renal = system: SN12C renal
# NCI/ADR-RES ovarian = system: NCI/ADR-RES ovarian
# ACHN renal = system: ACHN renal
# PC-3 prostate = system: PC-3 prostate
# SW-620 colon = system: SW-620 colon
# SF-539 CNS = system: SF-539 CNS
# CCRF-CEM leukemia = system: CCRF-CEM leukemia
# HOP-62 NSCLC = system: HOP-62 NSCLC
# M14 melanoma = system: M14 melanoma
# SF-268 CNS = system: SF-268 CNS
# TK-10 renal = system: TK-10 renal
smiles,measurement,setting,value
Fc1cnc(NC2CC2)nc1-c1cnc2ccc(N3CCOCC3)cn12,GI50,BT-549 breast,230 nM
same,TGI,BT-549 breast,3350 nM
same,GI50,T-47D breast,299 nM
same,TGI,T-47D breast,18600 nM
same,GI50,OVCAR-8 ovarian,284 nM
same,TGI,OVCAR-8 ovarian,> 73900 nM
same,GI50,HS 578T breast,265 nM
same,TGI,HS 578T breast,2460 nM
same,GI50,COLO 205 colon,144 nM
same,TGI,COLO 205 colon,428 nM
same,GI50,UO-31 renal,282 nM
same,TGI,UO-31 renal,11100 nM
same,GI50,NCI-H226 lung,201 nM
same,TGI,NCI-H226 lung,1390 nM
same,GI50,HT29 colon,251 nM
same,TGI,HT29 colon,> 58300 nM
same,GI50,SK-MEL-5 melanoma,231 nM
same,TGI,SK-MEL-5 melanoma,706 nM
same,GI50,MDA-MB-435,272 nM
same,TGI,MDA-MB-435,992 nM
same,GI50,K-562 leukemia,441 nM
same,TGI,K-562 leukemia,> 100000 nM
same,GI50,HCT-15 colon,266 nM
same,TGI,HCT-15 colon,14500 nM
same,GI50,RXF 393 renal,93.2 nM
same,TGI,RXF 393 renal,303 nM
same,GI50,MDA-MB-231 breast,203 nM
same,TGI,MDA-MB-231 breast,1680 nM
same,GI50,OVCAR-3 ovarian,258 nM
same,TGI,OVCAR-3 ovarian,> 32600 nM
same,GI50,HCT-116 colon,160 nM
same,TGI,HCT-116 colon,> 56300 nM
same,GI50,MCF7 breast,272 nM
same,TGI,MCF7 breast,6910 nM
same,GI50,DU-145 prostate,323 nM
same,TGI,DU-145 prostate,> 60900 nM
same,GI50,MALME-3M melanoma,340 nM
same,TGI,MALME-3M melanoma,1060 nM
same,GI50,NCI-H522 lung,374 nM
same,TGI,NCI-H522 lung,6110 nM
same,GI50,SNB-75 CNS,158 nM
same,TGI,SNB-75 CNS,475 nM
same,GI50,SR leukemia,128 nM
same,GI50,NCI-H460 lung,291 nM
same,TGI,NCI-H460 lung,10200 nM
same,GI50,RPMI-8226 leukemia,292 nM
same,TGI,RPMI-8226 leukemia,1710 nM
same,GI50,SK-OV-3 ovarian,781 nM
same,TGI,SK-OV-3 ovarian,81900 nM
same,GI50,LOX IMVI melanoma,90 nM
same,TGI,LOX IMVI melanoma,12500 nM
same,GI50,786-0 renal,322 nM
same,TGI,786-0 renal,22800 nM
same,GI50,OVCAR-5 ovarian,188 nM
same,TGI,OVCAR-5 ovarian,3130 nM
same,GI50,A549 NSCLC,292 nM
same,TGI,A549 NSCLC,> 64300 nM
same,GI50,SNB-19 CNS,290 nM
same,TGI,SNB-19 CNS,17700 nM
same,GI50,KM12 colon,237 nM
same,TGI,KM12 colon,3970 nM
same,GI50,HOP-92 NSCLC,116 nM
same,TGI,HOP-92 NSCLC,461 nM
same,GI50,IGROV1 ovarian,268 nM
same,TGI,IGROV1 ovarian,17500 nM
same,GI50,UACC-62 melanoma,200 nM
same,TGI,UACC-62 melanoma,699 nM
same,GI50,A498 renal,168 nM
same,TGI,A498 renal,430 nM
same,GI50,OVCAR-4 ovarian,306 nM
same,TGI,OVCAR-4 ovarian,3060 nM
same,GI50,EKVX NSCLC,297 nM
same,TGI,EKVX NSCLC,3460 nM
same,GI50,SF-295 CNS,299 nM
same,TGI,SF-295 CNS,12100 nM
same,GI50,SK-MEL-2 melanoma,218 nM
same,TGI,SK-MEL-2 melanoma,641 nM
same,GI50,CAKI-1 renal,122 nM
same,TGI,CAKI-1 renal,12500 nM
same,GI50,U251 CNS,271 nM
same,TGI,U251 CNS,> 42400 nM
same,GI50,SK-MEL-28 melanoma,252 nM
same,TGI,SK-MEL-28 melanoma,1270 nM
same,GI50,HCC-2998 colon,305 nM
same,TGI,HCC-2998 colon,2620 nM
same,GI50,UACC-257 melanoma,380 nM
same,TGI,UACC-257 melanoma,11200 nM
same,GI50,HL-60(TB) leukemia,304 nM
same,TGI,HL-60(TB) leukemia,1010 nM
same,GI50,NCI-H23 lung,242 nM
same,TGI,NCI-H23 lung,957 nM
same,GI50,MOLT-4 leukemia,346 nM
same,GI50,SN12C renal,242 nM
same,TGI,SN12C renal,5570 nM
same,GI50,NCI/ADR-RES ovarian,276 nM
same,TGI,NCI/ADR-RES ovarian,4700 nM
same,GI50,ACHN renal,160 nM
same,TGI,ACHN renal,10600 nM
same,GI50,PC-3 prostate,276 nM
same,TGI,PC-3 prostate,8600 nM
same,GI50,SW-620 colon,292 nM
same,TGI,SW-620 colon,12400 nM
same,GI50,SF-539 CNS,164 nM
same,TGI,SF-539 CNS,538 nM
same,GI50,CCRF-CEM leukemia,325 nM
same,TGI,CCRF-CEM leukemia,> 100000 nM
same,GI50,HOP-62 NSCLC,306 nM
same,TGI,HOP-62 NSCLC,> 44800 nM
same,GI50,M14 melanoma,279 nM
same,TGI,M14 melanoma,1010 nM
same,GI50,SF-268 CNS,296 nM
same,TGI,SF-268 CNS,6850 nM
same,GI50,TK-10 renal,357 nM
same,TGI,TK-10 renal,54200 nM
